Several values for one entry are separate records, joined by “and”; a condition that tells them apart may be missing. Equal values may be shown once. Read-outs that look alike come from different tables or passages of the source.
What was measured:
Assay type in all cases: in vivo
[1] = test system: Spodoptera littoralis (Egyptian cotton leaf worm); experiment: Spodoptera littoralis larvicide L1, feeding/contact, cotton leaf discs; conditions: single compound
Source text: (§1) The action to be expected E for a given active ingredient combination obeys the so-called COLBY formula and can be calculated as follows (COLBY, S.R. “Calculating synergistic and antagonistic responses of herbicide combination”. Weeds, Vol. 15, pages 20-22; 1967):
(§2) ppm=milligrams of active ingredient (=a.i.) per liter of spray mixture X=% action by active ingredient A) using p ppm of active ingredient Y=% action by active ingredient B) using q ppm of active ingredient.
(§3) According to COLBY, the expected (additive) action of active ingredients A)+B) using p+q ppm of active ingredient is
(§4) If the action actually observed (O) is greater than the expected action (E), then the action of the combination is super-additive, i.e. there is a synergistic effect. In mathematical terms the synergism factor SF corresponds to O/E. In the agricultural practice an SF of ≧1.2 indicates significant improvement over the purely complementary addition of activities (expected activity), while an SF of ≦0.9 in the practical application routine signals a loss of activity compared to the expected activity.
Spodoptera Littoralis (Egyptian Cotton Leaf Worm)
(Larvicide L1, Feeding/Contact)
Cotton leaf discs are placed on agar in Petri dishes and sprayed with test solutions in an application chamber. After drying, the leaf discs are infested with 10 L1 larvae. The samples are checked for mortality 5 days after treatment. 3 replicates per treatment were evaluated. (1 PPM=1 mg l^−1)

[2] = test system: Heliothis virescens (tobacco budworm); experiment: Heliothis virescens eggs in 24-well microtiter plate on artificial diet, larval mortality; conditions: Heliothis virescens, 96 h, read-out: AVERAGE DEAD IN %
Source text: as §1, §2, §3, §4
Heliothis Virescens (Tobacco Budworm)
Eggs (0-24 h old) are placed in 24-well microtiter plate on artificial diet and treated with test solutions (DMSO) by pipetting. After an incubation period of 4 days, samples are checked for larval mortality.

[3] = test system: Heliothis virescens (tobacco budworm); experiment: Heliothis virescens ovo-larvicide, feeding/contact, eggs on filter paper in Petri dishes; conditions: single compound, 7 days
Source text: as §1, §2, §3, §4
Heliothis Virescens (Tobacco Budworm):
(Ovo-Larvicide, Feeding/Contact)
30-35 fresh eggs (0-24 h old), deposited on filter paper, are placed in Petri dishes on top of a layer of artificial diet and 0.8 ml of diluted test solutions are pipetted onto them. After an incubation period of 7 days, samples are checked for egg and larval mortality. 3 replicates per treatment were evaluated.

[4] = test system: Tetranychus urticae (two spotted spider mite); experiment: Tetranychus urticae contact/feeding activity on bean plants, adult mortality
Source text: as §1, §2, §3, §4
Tetranychus Urticae (Two Spotted Spider Mite)
(Contact/Feeding Activity)
Bean plants are infested with mite populations of mixed ages. 1 day after infestation, plants are treated in a spray chamber with diluted test solutions. 1 and 8 days later, samples are checked for adult mortality. 2 replicates per treatment were evaluated.

[5] = test system: Tetranychus urticae (two-spotted spider mite); experiment: Tetranychus urticae bean leaf discs in 24-well microtiter plates, mixed population mortality; conditions: 8 days
Source text: as §1, §2, §3, §4
Tetranychus Urticae (Two-Spotted Spider Mite)
Bean leaf discs on agar in 24-well microtiter plates are sprayed with test solutions (DMSO). After drying, the leaf discs are infested with mite populations of mixed ages. 8 days later, discs are checked for mixed population mortality.

## CCOC(=O)OC1=C(c2cc(C)ccc2C)C(=O)N[C@]12CC[C@@H](OC)CC2 [Spirotetramat, spirotetramat]
[1]; 25 ppm AI
  AVERAGE DEAD IN % AFTER 5 DAYS: 23%
[1]; 50 PPM AI
  AVERAGE DEAD IN % AFTER 5 DAYS: 17% and 33%
[1]; 50 ppm AI
  AVERAGE DEAD IN % AFTER 5 DAYS: 33%
[1]; 100 PPM AI
  AVERAGE DEAD IN % AFTER 5 DAYS: 43% and 67%
[1]; 100 ppm AI
  AVERAGE DEAD IN % AFTER 5 DAYS: 67%
[2]; Spirotetramat alone 6.25 ppm AI
  pest or weed control at 6.25 ppm: 0%
[2]; Spirotetramat alone 12.5 ppm AI
  pest or weed control at 12.5 ppm: 0%
[2]; Spirotetramat alone 25 ppm AI
  pest or weed control at 25 ppm: 0%
[2]; Spirotetramat alone 50 ppm AI
  pest or weed control at 50 ppm: 0%
[2]; Spirotetramat alone 100 ppm AI
  pest or weed control at 100 ppm: 0%
[2]; Spirotetramat alone 200 ppm AI
  pest or weed control at 200 ppm: 0%
[2]; single compound at 6.25 ppm AI
  pest or weed control at 6.25 ppm: 0%
[2]; single compound at 12.5 ppm AI
  pest or weed control at 12.5 ppm: 0%
[2]; single compound at 25 ppm AI
  pest or weed control at 25 ppm: 0%
[2]; single compound at 50 ppm AI
  pest or weed control at 50 ppm: 0%
[2]; single compound at 100 ppm AI
  pest or weed control at 100 ppm: 0%
[2]; single compound at 200 ppm AI
  pest or weed control at 200 ppm: 0%
[3]; 100 ppm AI
  AVERAGE DEAD IN % (EGGS): 0%
  AVERAGE DEAD IN % (LARVAE): 78%
[3]; 200 ppm AI
  AVERAGE DEAD IN % (EGGS): 67% and 65%
  AVERAGE DEAD IN % (LARVAE): 100% and 98%
[4]; 0.1 ppm alone
  AVERAGE DEAD IN % AFTER 8 DAYS: 10%
[4]; 0.2 ppm alone
  AVERAGE DEAD IN % AFTER 8 DAYS: 33%
[4]; 0.4 ppm alone
  AVERAGE DEAD IN % AFTER 8 DAYS: 38%
[4]; Spirotetramat alone 0.1 ppm AI
  AVERAGE DEAD IN % AFTER 1 DAY: 13%
[4]; Spirotetramat alone 0.2 ppm AI
  AVERAGE DEAD IN % AFTER 1 DAY: 18%
[4]; Spirotetramat alone 0.4 ppm AI
  AVERAGE DEAD IN % AFTER 1 DAY: 23%

## CN1COCN(Cc2cnc(Cl)s2)/C1=N\[N+](=O)[O-] [Thiamethoxam, thiamethoxam]
[1]; 0.2 PPM AI
  AVERAGE DEAD IN % AFTER 5 DAYS: 7% and 10%
[1]; 0.2 ppm AI
  AVERAGE DEAD IN % AFTER 5 DAYS: 10%
[1]; 0.4 PPM AI
  AVERAGE DEAD IN % AFTER 5 DAYS: 13%
[1]; 0.4 ppm AI
  AVERAGE DEAD IN % AFTER 5 DAYS: 13%
[1]; 0.8 PPM AI
  AVERAGE DEAD IN % AFTER 5 DAYS: 30%
[1]; 0.8 ppm AI
  AVERAGE DEAD IN % AFTER 5 DAYS: 30%
[5]; 25 ppm alone
  AVERAGE DEAD IN %: 0%
[5]; 50 ppm alone
  AVERAGE DEAD IN %: 13%
[5]; 100 ppm alone
  AVERAGE DEAD IN %: 38%
[5]; 200 ppm alone
  AVERAGE DEAD IN %: 0%
[5]; 400 ppm alone
  AVERAGE DEAD IN %: 0%
[5]; 800 ppm alone
  AVERAGE DEAD IN %: 13%
[5]; Thiamethoxam alone, 25 ppm, Table 122
  AVERAGE DEAD IN %: 0%
[5]; Thiamethoxam alone, 50 ppm, Table 122
  AVERAGE DEAD IN %: 13%
[5]; Thiamethoxam alone, 100 ppm, Table 122
  AVERAGE DEAD IN %: 38%
[5]; Thiamethoxam alone, 200 ppm, Table 122
  AVERAGE DEAD IN %: 0%
[5]; Thiamethoxam alone, 400 ppm, Table 122
  AVERAGE DEAD IN %: 0%
[5]; Thiamethoxam alone, 800 ppm, Table 122
  AVERAGE DEAD IN %: 13%
[2]; Thiamethoxam alone 6.25 ppm AI
  pest or weed control at 6.25 ppm: 0%
[2]; Thiamethoxam alone 12.5 ppm AI
  pest or weed control at 12.5 ppm: 0%
[2]; Thiamethoxam alone 25 ppm AI
  pest or weed control at 25 ppm: 0%
[2]; Thiamethoxam alone 50 ppm AI
  pest or weed control at 50 ppm: 0%
[2]; Thiamethoxam alone 100 ppm AI
  pest or weed control at 100 ppm: 25%
[2]; Thiamethoxam alone 200 ppm AI
  pest or weed control at 200 ppm: 65%
[2]; single compound at 6.25 ppm AI
  pest or weed control at 6.25 ppm: 0%
[2]; single compound at 12.5 ppm AI
  pest or weed control at 12.5 ppm: 0%
[2]; single compound at 25 ppm AI
  pest or weed control at 25 ppm: 0%
[2]; single compound at 50 ppm AI
  pest or weed control at 50 ppm: 0%
[2]; single compound at 100 ppm AI
  pest or weed control at 100 ppm: 25%
[2]; single compound at 200 ppm AI
  pest or weed control at 200 ppm: 65%
[3]; 100 ppm AI
  AVERAGE DEAD IN % (EGGS): 0%
  AVERAGE DEAD IN % (LARVAE): 78%
[3]; 200 ppm AI
  AVERAGE DEAD IN % (EGGS): 0%
  AVERAGE DEAD IN % (LARVAE): 80%
[4]; 200 ppm alone
  AVERAGE DEAD IN % AFTER 8 DAYS: 5%
[4]; Thiamethoxam alone 200 ppm AI
  AVERAGE DEAD IN % AFTER 1 DAY: 0%

— US20130085064A1, “PESTICIDAL MIXTURES CONTAINING ISOXAZOLINE DERIVATIVES AND INSECTICIDE OR NEMATOICIDAL BIOLOGICAL AGENT” (priority 2010, published 2013)
